From PubChem BioAssay (NCI)
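Dose response: 5 concentrations. Exposure: 48 h. Format: 96-well plates. Endpoint: linear interpolation; highest concentration if not reached. GI50 marks 50% less growth. TGI is the concentration that stops growth completely.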

Experiments:
Assay in all cases: NCI tumour cell line growth inhibition, 48 h
DLD-1 colon = test system: DLD-1 colon
DMS 114 small cell lung = test system: DMS 114 small cell lung
HOP-18 NSCLC = test system: HOP-18 NSCLC
KM20L2 colon = test system: KM20L2 colon
LXFL 529 NSCLC = test system: LXFL 529 NSCLC
M19-MEL melanoma = test system: M19-MEL melanoma
XF 498 CNS = test system: XF 498 CNS
BT-549 breast = test system: BT-549 breast
T-47D breast = test system: T-47D breast
DMS 273 small cell lung = test system: DMS 273 small cell lung
P388/ADR leukemia = test system: P388/ADR leukemia
SN12K1 renal = test system: SN12K1 renal
SNB-78 CNS = test system: SNB-78 CNS
RXF-631 renal = test system: RXF-631 renal
P388 leukemia = test system: P388 leukemia

SMILES	TGI (DLD-1 colon) [µM]	TGI (DMS 114 small cell lung) [µM]	TGI (HOP-18 NSCLC) [µM]	TGI (KM20L2 colon) [µM]	TGI (LXFL 529 NSCLC) [µM]	TGI (M19-MEL melanoma) [µM]	TGI (XF 498 CNS) [µM]	TGI (BT-549 breast) [µM]	TGI (T-47D breast) [µM]	TGI (DMS 273 small cell lung) [µM]	TGI (SNB-78 CNS) [µM]	also measured
CCOC(=O)Nc1cc2c(c(N)n1)N=C(c1ccccc1)[C@H](C)N2	25.1	< 0.0001	> 100	< 0.0001	> 100	29.2	< 0.0001	–	–	–	–	GI50 (HOP-18 NSCLC): 29.1 µM
Nc1ccc(N=Nc2ccc(-c3ccc(O)cc3)cc2)c2ccc(S(=O)(=O)O)cc12	–	–	–	–	–	–	–	> 100	> 100	–	–	–
COc1cc(N/N=C/C#N)cc(OC)c1OC	–	–	–	–	–	–	–	–	> 10	–	–	–
O=C(O)NCc1ccccc1 (tested in a mixture with another compound)	–	–	–	–	–	–	–	> 92.3	> 81.6	–	–	–
CC(=O)OC/C=C/Cn1ncc(=O)[nH]c1=O	–	–	–	–	–	–	–	–	> 100	–	–	–
CCCCCCCCCCCCCCCC(=O)OCC1CCCN2CCCCC12 (stereo not drawn)	–	–	–	–	–	–	–	> 100	–	–	–	–
Oc1c2c(c3c4c1N=CC=4CCN=3)-c1c(Br)cc(Br)cc1CCN2	3.85	7.12	7.91	8.2	–	3.33	> 38.5	–	–	11.8	29.2	TGI (P388/ADR leukemia): 5.83 µM; TGI (SN12K1 renal): 15.4 µM
O=[N+]([O-])c1ccc2c(c1)Nc1c3ccccc3nc3cccc-2c13	–	–	–	–	–	–	–	29.8	43.2	–	–	–
CC(C)OC(=O)C1=C(O)c2ccccc2S(=O)(=O)N1	> 100	–	> 100	> 100	> 100	> 100	> 100	–	–	> 100	> 100	TGI (RXF-631 renal): > 100 µM
Cc1cc2c(cc1C)[n+](=O)c(C#N)c(Cl)n2[O-]	–	–	–	–	–	–	–	38.1	–	–	–	–
CC[C@H](Nc1nc(N)nc(C)c1C#N)c1nc2cccc(NCc3ccc(C(=O)NO)cc3)c2c(=O)n1-c1ccccc1	–	–	–	–	–	–	–	5.2	4.66	–	–	GI50 (BT-549 breast): 1.56 µM; GI50 (T-47D breast): 1.18 µM
Cc1ccc([N+](=O)[O-])cc1NC(=O)C(=O)C(C(=O)c1ccccc1F)C1OC(=O)c2ccccc21 (stereo not drawn)	> 100	61.2	–	> 100	> 100	> 100	> 100	–	–	> 100	> 100	TGI (RXF-631 renal): > 100 µM
Cc1ccc(S(=O)(=O)N/N=c2\c(C)c(C3=NS(=O)(=O)c4cc(S(N)(=O)=O)c(Cl)cc4N3)oc3c(Cl)cc(Cl)cc23)cc1	> 100	> 100	> 100	> 100	> 100	> 100	–	–	–	54	> 100	TGI (RXF-631 renal): > 100 µM
Cc1ccc(C[P+]2(c3ccccc3)CCCCC2)cc1	> 100	64.1	–	> 100	85.6	50.5	0.537	–	–	> 100	92.4	–
C=C1CC[C@@H](Br)C(C)(C)[C@]12CCC(C)(O)C(Cl)C2 (stereo partly drawn)	32.6	31.8	59.1	32.9	–	34.3	–	–	–	36.2	> 100	TGI (RXF-631 renal): 41.9 µM
N=c1nc2n(cc1F)[C@@H]1O[C@H](CO)[C@@H](O)[C@@H]1O2	> 100	–	> 100	> 100	> 100	> 100	> 100	> 100	65.2	> 100	> 100	–
CC(=O)O[C@H]1CC[C@@]2(C)C(=CC[C@@H]3[C@@H]2CC[C@]2(C)Nc4c(cnn4S(C)(=O)=O)C[C@@H]32)C1	–	–	–	–	–	–	–	72.5	> 100	–	–	–
O=C1Nc2ccccc2S/C1=C\c1cccc(C(F)(F)F)c1	–	–	–	–	–	–	–	> 100	> 100	–	–	–
O=C(N/C(=C\c1cccc([N+](=O)[O-])c1)c1nc2[nH]c(=S)[nH]c(=O)c2[nH]1)c1ccccc1	> 100	> 100	> 100	> 100	> 100	> 100	> 100	–	–	–	> 100	TGI (RXF-631 renal): > 100 µM
NC(=S)Nc1cc(Cl)ccc1Cl	> 100	> 100	> 100	> 100	> 100	> 100	> 100	–	–	> 100	> 100	TGI (RXF-631 renal): > 100 µM
O=C(O)CCSCc1ccc(I)cc1	–	–	–	–	–	–	–	> 100	> 100	–	–	–
O=C1Nc2ccccc2S/C1=C\c1ccccc1C(F)(F)F	–	–	–	–	–	–	–	> 100	> 100	–	–	–
CCC1CN2CCC1CC2 (stereo not drawn)	> 100	> 100	> 100	> 100	–	> 100	> 100	–	–	> 100	> 100	TGI (P388 leukemia): > 100 µM; TGI (P388/ADR leukemia): > 100 µM; TGI (SN12K1 renal): > 100 µM
